System: not listed separately
Assay: Measurement of LogP values by HPLC on reversed phase columns (EEC directive 79/831 Annex V.A8)
Format: physicochemical
Conditions: method [a]: LC-UV, acidic range, 0.1% formic acid in water and acetonitrile as eluent; Table 1
Procedure: Measurement of Log P values was performed as outlined above.

SMILES | chromatographic logP
N#Cc1cncn1CC(O)(Cc1ccc(F)cc1F)C1(Cl)CC1 (stereo not drawn) [Example I-125] | 2.78
OC(Cc1ccncc1Cl)(Cn1cncc1Cl)C1(Cl)CC1 (stereo not drawn) [Example I-72] | 1.52
OC(Cc1ccccc1F)(Cn1cncc1Cl)C1(Cl)CC1 (stereo not drawn) [Example I-32] | 2.07
N#Cc1cncn1CC(O)(Cc1cccc(Cl)c1Cl)C1(Cl)CC1 (stereo not drawn) [Example I-49] | 3.25

System: Alternaria brassicae
Assay: In vivo preventive test on Alternaria brassicae (leaf spot on radish), Examples A and R1
Conditions: Alternaria brassicae, 144 h, 500 ppm of active ingredient, preventive spray, evaluated 6 days after inoculation, read-out: efficacy

SMILES | pest or weed control at 500 ppm
OC(Cc1ccccc1F)(Cn1cncc1Cl)C1(Cl)CC1 (stereo not drawn) [Example I-32] | 90 to 100%

Same assay, conditions: Alternaria brassicae, 144 h, Example R1, rate of application 100 ppm, read-out: Efficacy in %

SMILES | pest or weed control at 100 ppm
OC(Cc1ccccc1F)(Cn1cncc1Cl)C1(Cl)CC1 (stereo not drawn) [Example I-32] | 50%

Same assay, conditions: Alternaria brassicae, 144 h, Example R1, rate of application 500 ppm, read-out: Efficacy in %

SMILES | pest or weed control at 500 ppm
OC(Cc1ccccc1F)(Cn1cncc1Cl)C1(Cl)CC1 (stereo not drawn) [Example I-32] | 92%

System: Botrytis cinerea
Assay: In vivo preventive test on Botrytis cinerea (grey mould) on gherkin, Examples B, Q1 and R2
Conditions: Botrytis cinerea, 500 ppm of active ingredient, preventive spray, evaluated 4 to 5 days after inoculation, read-out: efficacy

SMILES | pest or weed control at 500 ppm
N#Cc1cncn1CC(O)(Cc1ccc(F)cc1F)C1(Cl)CC1 (stereo not drawn) [Example I-125] | 80 to 89%
OC(Cc1ccncc1Cl)(Cn1cncc1Cl)C1(Cl)CC1 (stereo not drawn) [Example I-72] | 70 to 79%
OC(Cc1ccccc1F)(Cn1cncc1Cl)C1(Cl)CC1 (stereo not drawn) [Example I-32] | 90 to 100%

Same assay, conditions: Botrytis cinerea, Example R2, rate of application 100 ppm, read-out: Efficacy in %

SMILES | pest or weed control at 100 ppm
OC(Cc1ccccc1F)(Cn1cncc1Cl)C1(Cl)CC1 (stereo not drawn) [Example I-32] | 99%

Same assay, conditions: Botrytis cinerea, Example R2, rate of application 500 ppm, read-out: Efficacy in %

SMILES | pest or weed control at 500 ppm
OC(Cc1ccccc1F)(Cn1cncc1Cl)C1(Cl)CC1 (stereo not drawn) [Example I-32] | 100%

System: Puccinia recondita
Assay: In vivo preventive test on Puccinia recondita (brown rust on wheat), Examples C and R3
Conditions: Puccinia recondita, 264 h; 500 ppm of active ingredient; wheat, preventive spray, evaluated 11 days after inoculation; read-out: efficacy

SMILES | pest or weed control at 500 ppm
N#Cc1cncn1CC(O)(Cc1ccc(F)cc1F)C1(Cl)CC1 (stereo not drawn) [Example I-125] | 90 to 100%
OC(Cc1ccncc1Cl)(Cn1cncc1Cl)C1(Cl)CC1 (stereo not drawn) [Example I-72] | 80 to 89%
OC(Cc1ccccc1F)(Cn1cncc1Cl)C1(Cl)CC1 (stereo not drawn) [Example I-32] | 90 to 100%
N#Cc1cncn1CC(O)(Cc1cccc(Cl)c1Cl)C1(Cl)CC1 (stereo not drawn) [Example I-49] | 90 to 100%

Same assay, conditions: Puccinia recondita, 264 h; Example R3, wheat, preventive spray, 100 ppm, evaluated 11 days after inoculation; read-out: Efficacy in %

SMILES | pest or weed control at 100 ppm
OC(Cc1ccccc1F)(Cn1cncc1Cl)C1(Cl)CC1 (stereo not drawn) [Example I-32] | 78%

Same assay, conditions: Puccinia recondita, 264 h; Example R3, wheat, preventive spray, 500 ppm, evaluated 11 days after inoculation; read-out: Efficacy in %

SMILES | pest or weed control at 500 ppm
OC(Cc1ccccc1F)(Cn1cncc1Cl)C1(Cl)CC1 (stereo not drawn) [Example I-32] | 94%

System: Pyrenophora teres
Assay: In vivo preventive test on Pyrenophora teres (net blotch on barley), Examples D, Q2 and R4
Conditions: Pyrenophora teres, 336 h, 500 ppm of active ingredient, preventive spray, evaluated 14 days after inoculation, read-out: efficacy

SMILES | pest or weed control at 500 ppm
OC(Cc1ccncc1Cl)(Cn1cncc1Cl)C1(Cl)CC1 (stereo not drawn) [Example I-72] | 80 to 89%
OC(Cc1ccccc1F)(Cn1cncc1Cl)C1(Cl)CC1 (stereo not drawn) [Example I-32] | 80 to 89%
N#Cc1cncn1CC(O)(Cc1cccc(Cl)c1Cl)C1(Cl)CC1 (stereo not drawn) [Example I-49] | 90 to 100%

Same assay, conditions: Pyrenophora teres, 336 h, Example R4, rate of application 100 ppm, read-out: Efficacy in %

SMILES | pest or weed control at 100 ppm
OC(Cc1ccccc1F)(Cn1cncc1Cl)C1(Cl)CC1 (stereo not drawn) [Example I-32] | 78%

Same assay, conditions: Pyrenophora teres, 336 h, Example R4, rate of application 500 ppm, read-out: Efficacy in %

SMILES | pest or weed control at 500 ppm
OC(Cc1ccccc1F)(Cn1cncc1Cl)C1(Cl)CC1 (stereo not drawn) [Example I-32] | 89%

System: Septoria tritici
Assay: In vivo preventive test on Septoria tritici (leaf spot on wheat), Examples E, Q3 and R5
Conditions: Zymoseptoria tritici, 576 h, 500 ppm of active ingredient; wheat, preventive spray, evaluated 24 days after inoculation; read-out: efficacy

SMILES | pest or weed control at 500 ppm
N#Cc1cncn1CC(O)(Cc1ccc(F)cc1F)C1(Cl)CC1 (stereo not drawn) [Example I-125] | 90 to 100%
OC(Cc1ccncc1Cl)(Cn1cncc1Cl)C1(Cl)CC1 (stereo not drawn) [Example I-72] | 90 to 100%
OC(Cc1ccccc1F)(Cn1cncc1Cl)C1(Cl)CC1 (stereo not drawn) [Example I-32] | 90 to 100%
N#Cc1cncn1CC(O)(Cc1cccc(Cl)c1Cl)C1(Cl)CC1 (stereo not drawn) [Example I-49] | 90 to 100%

Same assay, conditions: Zymoseptoria tritici, 576 h, Example R5, wheat, preventive spray, 100 ppm, evaluated 24 days after inoculation; read-out: Efficacy in %

SMILES | pest or weed control at 100 ppm
OC(Cc1ccccc1F)(Cn1cncc1Cl)C1(Cl)CC1 (stereo not drawn) [Example I-32] | 71%

Same assay, conditions: Zymoseptoria tritici, 576 h, Example R5, wheat, preventive spray, 500 ppm, evaluated 24 days after inoculation; read-out: Efficacy in %

SMILES | pest or weed control at 500 ppm
OC(Cc1ccccc1F)(Cn1cncc1Cl)C1(Cl)CC1 (stereo not drawn) [Example I-32] | 100%

System: Sphaerotheca fuliginea
Assay: In vivo preventive test on Sphaerotheca fuliginea (powdery mildew on cucurbits), Examples F and R6
Conditions: Podosphaera fuliginea, 360 h; 500 ppm of active ingredient; gherkin, preventive spray, evaluated 15 days after inoculation; read-out: efficacy

SMILES | pest or weed control at 500 ppm
N#Cc1cncn1CC(O)(Cc1ccc(F)cc1F)C1(Cl)CC1 (stereo not drawn) [Example I-125] | 90 to 100%
OC(Cc1ccncc1Cl)(Cn1cncc1Cl)C1(Cl)CC1 (stereo not drawn) [Example I-72] | 90 to 100%
OC(Cc1ccccc1F)(Cn1cncc1Cl)C1(Cl)CC1 (stereo not drawn) [Example I-32] | 90 to 100%
N#Cc1cncn1CC(O)(Cc1cccc(Cl)c1Cl)C1(Cl)CC1 (stereo not drawn) [Example I-49] | 90 to 100%

Same assay, conditions: Podosphaera fuliginea, 360 h; Example R6, gherkin, preventive spray, 100 ppm, evaluated 15 days after inoculation; read-out: Efficacy in %

SMILES | pest or weed control at 100 ppm
OC(Cc1ccccc1F)(Cn1cncc1Cl)C1(Cl)CC1 (stereo not drawn) [Example I-32] | 100%

Same assay, conditions: Podosphaera fuliginea, 360 h; Example R6, gherkin, preventive spray, 500 ppm, evaluated 15 days after inoculation; read-out: Efficacy in %

SMILES | pest or weed control at 500 ppm
OC(Cc1ccccc1F)(Cn1cncc1Cl)C1(Cl)CC1 (stereo not drawn) [Example I-32] | 100%

System: Uromyces appendiculatus
Assay: In vivo preventive test on Uromyces appendiculatus (bean rust), Examples G and R7
Conditions: 264 h, 500 ppm of active ingredient, bean, preventive spray, evaluated 11 days after inoculation, read-out: efficacy

SMILES | pest or weed control at 500 ppm
N#Cc1cncn1CC(O)(Cc1ccc(F)cc1F)C1(Cl)CC1 (stereo not drawn) [Example I-125] | 90 to 100%
OC(Cc1ccncc1Cl)(Cn1cncc1Cl)C1(Cl)CC1 (stereo not drawn) [Example I-72] | 90 to 100%
OC(Cc1ccccc1F)(Cn1cncc1Cl)C1(Cl)CC1 (stereo not drawn) [Example I-32] | 90 to 100%
N#Cc1cncn1CC(O)(Cc1cccc(Cl)c1Cl)C1(Cl)CC1 (stereo not drawn) [Example I-49] | 90 to 100%

Same assay, conditions: 264 h, Example R7, bean, preventive spray, 100 ppm, evaluated 11 days after inoculation, read-out: Efficacy in %

SMILES | pest or weed control at 100 ppm
OC(Cc1ccccc1F)(Cn1cncc1Cl)C1(Cl)CC1 (stereo not drawn) [Example I-32] | 81%

Same assay, conditions: 264 h, Example R7, bean, preventive spray, 500 ppm, evaluated 11 days after inoculation, read-out: Efficacy in %

SMILES | pest or weed control at 500 ppm
OC(Cc1ccccc1F)(Cn1cncc1Cl)C1(Cl)CC1 (stereo not drawn) [Example I-32] | 100%

System: Alternaria solani
Assay: In vivo preventive Alternaria test (tomatoes), Example H
Conditions: 72 h, 100 ppm of active ingredient, preventive spray, evaluated 3 days after inoculation, read-out: efficacy

SMILES | pest or weed control at 100 ppm
N#Cc1cncn1CC(O)(Cc1ccc(F)cc1F)C1(Cl)CC1 (stereo not drawn) [Example I-125] | 90 to 100%
OC(Cc1ccccc1F)(Cn1cncc1Cl)C1(Cl)CC1 (stereo not drawn) [Example I-32] | 90 to 100%

System: Phakopsora pachyrhizi
Assay: In vivo preventive Phakopsora test (soybeans), Example I
Conditions: 168 h, 100 ppm of active ingredient, preventive spray, evaluated 7 days after inoculation, read-out: efficacy

SMILES | pest or weed control at 100 ppm
N#Cc1cncn1CC(O)(Cc1ccc(F)cc1F)C1(Cl)CC1 (stereo not drawn) [Example I-125] | 90 to 100%
OC(Cc1ccccc1F)(Cn1cncc1Cl)C1(Cl)CC1 (stereo not drawn) [Example I-32] | 90 to 100%

System: Blumeria graminis fsp. hordei
Assay: In vivo preventive Blumeria test (barley), Example K
Conditions: 168 h, 500 ppm of active ingredient, preventive spray, evaluated 7 days after inoculation, read-out: efficacy
Source text: After the spray coating has been dried, the plants are dusted with spores of Blumeria graminis fsp. hordei.

SMILES | pest or weed control at 500 ppm
N#Cc1cncn1CC(O)(Cc1ccc(F)cc1F)C1(Cl)CC1 (stereo not drawn) [Example I-125] | 90 to 100%
OC(Cc1ccncc1Cl)(Cn1cncc1Cl)C1(Cl)CC1 (stereo not drawn) [Example I-72] | 90 to 100%
OC(Cc1ccccc1F)(Cn1cncc1Cl)C1(Cl)CC1 (stereo not drawn) [Example I-32] | 90 to 100%
N#Cc1cncn1CC(O)(Cc1cccc(Cl)c1Cl)C1(Cl)CC1 (stereo not drawn) [Example I-49] | 90 to 100%

System: Fusarium graminearum
Assay: whole plant or invertebrate
Format: in vivo
Conditions: in Hordeum vulgare, 120 h, read-out: efficacy

SMILES | pest or weed control at 500 ppm
N#Cc1cncn1CC(O)(Cc1ccc(F)cc1F)C1(Cl)CC1 (stereo not drawn) [Example I-125] | 90 to 100%
OC(Cc1ccncc1Cl)(Cn1cncc1Cl)C1(Cl)CC1 (stereo not drawn) [Example I-72] | 70 to 79%
OC(Cc1ccccc1F)(Cn1cncc1Cl)C1(Cl)CC1 (stereo not drawn) [Example I-32] | 70 to 79%
N#Cc1cncn1CC(O)(Cc1cccc(Cl)c1Cl)C1(Cl)CC1 (stereo not drawn) [Example I-49] | 70 to 79%

System: Leptosphaeria nodorum
Assay: In vivo preventive Leptosphaeria nodorum test (wheat), Example N
Conditions: Parastagonospora nodorum, 192 h, 500 ppm of active ingredient, preventive spray, evaluated 8 days after inoculation, read-out: efficacy
Source text: After the spray coating has been dried, the plants are sprayed with a spore suspension of Leptosphaeria nodorum.

SMILES | pest or weed control at 500 ppm
N#Cc1cncn1CC(O)(Cc1ccc(F)cc1F)C1(Cl)CC1 (stereo not drawn) [Example I-125] | 80 to 89%
OC(Cc1ccncc1Cl)(Cn1cncc1Cl)C1(Cl)CC1 (stereo not drawn) [Example I-72] | 90 to 100%
OC(Cc1ccccc1F)(Cn1cncc1Cl)C1(Cl)CC1 (stereo not drawn) [Example I-32] | 80 to 89%
N#Cc1cncn1CC(O)(Cc1cccc(Cl)c1Cl)C1(Cl)CC1 (stereo not drawn) [Example I-49] | 80 to 89%

System: Fusarium nivale (var. majus)
Assay: In vivo preventive Fusarium nivale (var. majus) test (wheat), Example O
Conditions: Microdochium nivale, 120 h, 500 ppm of active ingredient, preventive spray, evaluated 5 days after inoculation, read-out: efficacy
Source text: After the spray coating has been dried, the plants are slightly injured by using a sandblast and afterwards they are sprayed with a conidia suspension of Fusarium nivale (var. majus).

SMILES | pest or weed control at 500 ppm
N#Cc1cncn1CC(O)(Cc1ccc(F)cc1F)C1(Cl)CC1 (stereo not drawn) [Example I-125] | 90 to 100%
OC(Cc1ccncc1Cl)(Cn1cncc1Cl)C1(Cl)CC1 (stereo not drawn) [Example I-72] | 90 to 100%
OC(Cc1ccccc1F)(Cn1cncc1Cl)C1(Cl)CC1 (stereo not drawn) [Example I-32] | 80 to 89%
N#Cc1cncn1CC(O)(Cc1cccc(Cl)c1Cl)C1(Cl)CC1 (stereo not drawn) [Example I-49] | 80 to 89%

System: Pyricularia oryzae
Assay: whole plant or invertebrate
Format: in vivo
Conditions: 192 h, read-out: efficacy

SMILES | pest or weed control at 500 ppm
N#Cc1cncn1CC(O)(Cc1ccc(F)cc1F)C1(Cl)CC1 (stereo not drawn) [Example I-125] | 80 to 89%
OC(Cc1ccncc1Cl)(Cn1cncc1Cl)C1(Cl)CC1 (stereo not drawn) [Example I-72] | 90 to 100%
N#Cc1cncn1CC(O)(Cc1cccc(Cl)c1Cl)C1(Cl)CC1 (stereo not drawn) [Example I-49] | 80 to 89%

System: Venturia inaequalis
Assay: In vivo preventive Venturia test (apples), Example J
Conditions: 240 h, read-out: efficacy
Procedure: After the spray coating has dried on, the plants are inoculated with an aqueous conidia suspension of the causal agent of apple scab (Venturia inaequalis) and then remain for 1 day in an incubation cabinet at approximately 20° C. and a relative atmospheric humidity of 100%.
The plants are then placed in a greenhouse at approximately 21° C. and a relative atmospheric humidity of approximately 90%.
The test is evaluated 10 days after the inoculation.

SMILES | pest or weed control at 100 ppm
N#Cc1cncn1CC(O)(Cc1ccc(F)cc1F)C1(Cl)CC1 (stereo not drawn) [Example I-125] | 90 to 100%
OC(Cc1ccccc1F)(Cn1cncc1Cl)C1(Cl)CC1 (stereo not drawn) [Example I-32] | 90 to 100%

— patent US10231453B2, “5-substituted imidazole derivatives” (BAYER CROPSCIENCE AKTIENGESELLSCHAFT, priority 2015, dated 2019)
